{
  "source": "patent US11382907B2",
  "about": "“Methods and compositions for treating aging-associated impairments using CCR3-inhibitors” (Alkahest, Inc., priority 2017, dated 2022)",
  "key": {"[1]": {"tested_on": "CD68+ activated microglia", "assay": "IHC of CD68+ activated microglia in hippocampus of mice given daily LPS", "format": "in vivo, C57Bl/6 mice", "conditions": "3-month-old mice, daily LPS IP 7 weeks, 30 mg/kg PO BID 4 weeks", "from_the_text": "Mice were taken down on the day following the end of behavior testing. Anesthesia was induced by 2,2,2-tribromoethanol and mice were subsequently perfused with 0.9% saline trans-cardially. The brains were dissected and cut sagitally in two even halves. One half was snap frozen for later use in dry ice, and the other was fixed in 4% paraformaldehyde in PBS for use in immunohistochemistry. After two days of fixation, the hemibrains were transferred to a 30% sucrose in PBS solution and changed after two days. Hemibrains were sectioned at 30 um on a microtome at −22° C. Brain sections were stored in cryoprotectant media at −20° C. until needed for staining. Blocking was done on free floating sections in the appropriate serum at 10% serum in PBST 0.5%. Primary antibodies were incubated overnight at 4 C. For light microscopy, the following antibodies were used in the given concentrations: DCX, 1:200, Santa Cruz BioTech, CD68, 1:1000. AbD Serotec. Secondary biotinylated antibodies were applied the next day at a concentration of 1:300. Staining visualization was achieved by reaction with the ABC kit (Vector) and diaminobenzidine (Sigma). Dehydration of the mounted slides was achieved using ethanol and xylene dips. Images were acquired on a Leica light microscope at 5× magnification. […]"}, "[2]": {"tested_on": "inflammatory cytokines TNFa, IL6, IL1beta, IL5, IL17", "assay": "Luminex assay of inflammatory cytokines in plasma of aged mice", "format": "in vivo, C57Bl/6 mice", "conditions": "23-month-old mice, 30 mg/kg SQ BID 21 days", "protocol": "Panels of circulating cytokines from mouse plasma were analyzed by Luminex. Luminex Assay Service performed by Eve Technologies (Calgary, Alberta, Canada).\n23-month-old C57Bl/6 mice were dosed with either vehicle control or Compound 1 subcutaneously twice daily for 21 days. Three weeks later, mice were subjected to behavior testing, and sacrificed the day following the last behavior test.\nTreatment Groups: • Treatment Group 1b, Vehicle treatment: Aged C57Bl/6 mice (n=9), aged 23 months, received twice daily (BID) subcutaneous (SQ) treatment of vehicle solution for 21 days. • Treatment Group 4, Compound 1 treatment: Aged C57Bl/6 mice (n=17), aged 23 months, received twice daily (BID) subcutaneous (SQ) treatment of Compound 1, 30 mg/kg, for 21 days."}, "[3]": {"tested_on": "two-month-old C57Bl/6 mice treated with rmCCL11", "assay": "Y-maze test in young mice given recombinant mouse CCL11", "format": "in vivo", "conditions": "2-month-old mice; rmCCL11 i.p.; Compound 1 30 mg/kg p.o. b.i.d.", "protocol": "A large Y-maze test assesses short-term memory of the familiarity of a specific context. Mice are brought to the experimental room for at least 30 min of acclimation to the experimental room conditions (dim lighting) prior to testing. For the initial training trial, the mouse is placed at the end of one arm of a large Y-maze designated “start arm” (arm length: 15 inches). The third arm of the maze is blocked off, allowing the mouse to explore two of the three arms freely (“start arm” and “familiar arm”) for 5 min. Each arm contains spatial cues. One hour later, the mouse is placed back into the maze in the “start arm” and allowed to explore all three arms with the third arm unblocked (“novel arm”). Movements in and out of each arm are tracked using automated tracking software (CleverSys). Testing is performed under dim lighting, and the apparatus is cleaned with 70% ethanol between trials.\nTwo-month-old C57Bl/6 mice were dosed with either vehicle control or Compound 1 by oral gavage twice daily for 18 days. During the last week of treatment, mice were subjected to behavior testing prior to perfusion on the last day of treatment. All mice received 5 consecutive days of BrdU injection at 150 mg/kg IP immediately prior to treatment start. […]"}, "[4]": {"assay": "Compound cerebrospinal fluid levels in mice (mass spectroscopy)", "format": "in vivo, C57BL/6 mice", "conditions": "for concentration at 4 weeks: C57BL/6, mouse, cerebrospinal fluid, subcutaneous, 16.5-month-old old group, read-out: level of Compound 1 in CSF", "protocol": "Compound levels were measured by MS/MS by Quintara (Hayward, Calif.).\nCerebrospinal fluid (CSF) from both the 2-month-old “young” and 16.5-month-old “old” groups was collected and levels of Compound 1 were determined by mass spectroscopy. FIG. 6 depicts the levels of the compound of the invention that were detected in mouse CSF for both the young and old groups (both below 10 nM)."}},
  "note": "“Also recorded” adds a separate entry of the source. Read-outs that look alike come from different tables or passages of the source.",
  "data": [
    {"smiles": "Cc1cc(C(=O)N(C)C)cc(NC(=O)[C@H]2CCC(=O)N2C2CCN(Cc3ccc(Cl)c(C)c3)CC2)n1", "note": "[Compound 1]", "values": [
      {"measurement": "CD68+ immunoreactivity (activated microglia) in hippocampus", "setting": "[1]", "value": "dramatically decreased CD68+ immunoreactivity; also recorded: robust trend towards decrease"},
      {"measurement": "plasma IL1beta level", "setting": "[2]", "value": "strong trends in decrease; also recorded: trend lower"},
      {"measurement": "plasma IL5 level", "setting": "[2]", "value": "strong trends in decrease; also recorded: trend lower"},
      {"measurement": "plasma IL6 level", "setting": "[2]", "value": "strong trends in decrease; also recorded: trend lower"},
      {"measurement": "plasma IL17 level", "setting": "[2]", "value": "strong trends in decrease; also recorded: trend lower"},
      {"measurement": "plasma TNFa level", "setting": "[2]", "value": "strong trends in decrease; also recorded: trend lower"},
      {"measurement": "memory in the Y-maze", "setting": "[3]", "value": "no longer significantly different from control mice"},
      {"measurement": "concentration at 4 weeks", "setting": "[4]; 50 mg/mL solution infused at 0.5 μL/hour by Alzet mini-pump, mass spectroscopy", "value": "< 10", "unit": "nM"},
      {"measurement": "concentration at 4 weeks", "setting": "[4]; mass spectroscopy", "value": "< 10", "unit": "nM"},
      {"measurement": "difference in BBB penetration between young and old mice", "setting": "[4]; mouse, in vivo", "value": "no difference in BBB penetration between young and old mice"},
      {"measurement": "crossing of the blood-brain barrier (CSF levels versus Ki)", "setting": "[4]; young and old mice", "value": "do not cross the blood-brain barrier (BBB) in significant concentrations"},
      {"measurement": "level of Compound 1 in CSF", "setting": "[4]; young group, mass spectroscopy", "value": "below 10 nM"}
    ]}
  ]
}
